A short description of data set [1]: in vitro. The settings on record: human, liver microsomes.
Description: Half life in human liver microsomes
Data set [2] in a line: in vitro. The settings on record: rat, liver microsomes. On the technique in general: Liver microsomes are a subcellular fraction often used to study metabolism.
Description: Half life in rat liver microsomes

SMILES strings stand for the structures.

As for `NC(=O)C1CCN(CCOc2ccc(C#Cc3ccc(-c4ccc(Cl)cc4)cn3)cc2)CC1`, the half-life in the data set “in vitro [1]” was above 90 min; in the data set “in vitro [2]”, 21 min.

What is called half-life is how long it takes for the measured level to halve.
